Assay results from patent US20070003586A1, “Insecticidal coating for use on cellulosic substrates” (priority 2005, published 2007).

Test: LD50 (lethal dose 50%) value
Conditions: rat, in vivo; insecticide as such; subjects typically rats
Experimental: According to one aspect of the present invention, an insecticidal coating composition for use on cellulosic substrates is provided comprising a polyvinyl acetate emulsion; a vinyl acetate ethylene copolymer emulsion; and an insecticide having an LD50 value of between about 14,500 to about 15,500 mg/kg. By “LD50” value, it is meant “lethal dose 50%” value, which indicates the quantity of a substance, which, when administered to a population of subjects (typically rats), will cause 50% of the subjects to perish.

CC1(C)[C@H](C(=O)O[C@H](C#N)c2cccc(Oc3ccccc3)c2)[C@@H]1C=C(Br)Br [deltamethrin, (S)-cyano-3-phenoxybenzyl(1R)-cis-3-(2,2-dibromovinyl)-2,2-dimethylcyclopropane carboxylate]
LD50: ~15000 mg/kg
